Columns and labels:
Assay in all cases: cells
CTV-1 = format: functional, cell-based, Homo sapiens; details: Homo sapiens, CTV-1;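 further: growth inhibition of the cell line, read out with a cell viability assay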
Description: SANGER: Inhibition of human CTV-1 cell growth in a cell viability assay.

DBTRG-05MG = format: functional, cell-based; details: Homo sapiens;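 further: cell viability assay measuring growth inhibition of human DBTRG-05MG cells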
Description: SANGER: Inhibition of human DBTRG-05MG cell growth in a cell viability assay.

DOHH-2 = format: functional, cell-based, Homo sapiens; details: Homo sapiens, DOHH-2;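 further: growth inhibition of human DOHH-2 cells, read out with a cell viability assay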
Description: SANGER: Inhibition of human DOHH-2 cell growth in a cell viability assay.

DU-4475 = format: functional, cell-based, Homo sapiens; details: Homo sapiens, DU-4475
Description: SANGER: Inhibition of human DU-4475 cell growth in a cell viability assay.

EKVX = format: functional, cell-based, Homo sapiens; details: Homo sapiens, EKVX;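 further: growth inhibition of human EKVX cells, read out with a cell viability assay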
Description: SANGER: Inhibition of human EKVX cell growth in a cell viability assay.

ES3 = format: functional, cell-based, Homo sapiens; details: Homo sapiens, ES3;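 further: growth inhibition of ES3 cells, read out with a cell viability assay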
Description: SANGER: Inhibition of human ES3 cell growth in a cell viability assay.

ES4 = format: functional, cell-based, Homo sapiens; details: Homo sapiens, ES4;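 further: growth inhibition of human ES4 cells, read out by a cell viability assay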
Description: SANGER: Inhibition of human ES4 cell growth in a cell viability assay.

EW-16 = format: functional, cell-based, Homo sapiens; details: Homo sapiens, EW-16;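 further: growth inhibition of human EW-16 cells, read out as cell viability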
Description: SANGER: Inhibition of human EW-16 cell growth in a cell viability assay.

GI-1 = format: functional, cell-based, Homo sapiens; details: Homo sapiens, GI-1;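 further: growth inhibition of human GI-1 cells, measured with a cell viability readout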
Description: SANGER: Inhibition of human GI-1 cell growth in a cell viability assay.

HCC2157 = format: functional, cell-based, Homo sapiens; details: Homo sapiens, HCC2157;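 further: growth inhibition of the cancer cell line, read out as cell viability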
Description: SANGER: Inhibition of human HCC2157 cell growth in a cell viability assay.

HDLM-2 = format: functional, cell-based, Homo sapiens; details: Homo sapiens, HDLM-2;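 further: cell viability assay measuring suppression of HDLM-2 proliferation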
Description: SANGER: Inhibition of human HDLM-2 cell growth in a cell viability assay.

HL-60 = format: functional, cell-based, Homo sapiens; details: Homo sapiens, HL-60;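 further: growth inhibition of human HL-60 cells, read out with a cell viability assay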
Description: SANGER: Inhibition of human HL-60 cell growth in a cell viability assay.

HT = format: functional, cell-based, Homo sapiens; details: Homo sapiens, HT
Description: SANGER: Inhibition of human HT cell growth in a cell viability assay.

J-RT3-T3-5 = format: functional, cell-based, Homo sapiens; details: Homo sapiens, J-RT3-T3-5;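 further: cell viability assay measuring growth inhibition of human J-RT3-T3-5 cells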
Description: SANGER: Inhibition of human J-RT3-T3-5 cell growth in a cell viability assay.

JVM-2 = format: functional, cell-based, Homo sapiens; details: Homo sapiens, JVM-2;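 further: growth inhibition of JVM-2 cells determined by a cell viability assay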
Description: SANGER: Inhibition of human JVM-2 cell growth in a cell viability assay.

KARPAS-45 = format: functional, cell-based, Homo sapiens; details: Homo sapiens, KARPAS-45;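 further: inhibition of cell line growth, read out through a viability assay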
Description: SANGER: Inhibition of human KARPAS-45 cell growth in a cell viability assay.

KU812 cell line = format: functional, cell-based, Homo sapiens; details: Homo sapiens, KU812;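 further: growth inhibition of KU812 cells, read out with a cell viability assay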
Description: SANGER: Inhibition of human KU812 cell growth in a cell viability assay.

KURAMOCHI = format: functional, cell-based, Homo sapiens; details: Homo sapiens, KURAMOCHI;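 further: growth inhibition of KURAMOCHI cells, read out with a cell viability assay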
Description: SANGER: Inhibition of human KURAMOCHI cell growth in a cell viability assay.

KY821 = format: functional, cell-based, Homo sapiens; details: Homo sapiens, KY821;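 further: growth inhibition of human KY821 cells, read out by a cell viability assay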
Description: SANGER: Inhibition of human KY821 cell growth in a cell viability assay.

LAMA-84 = format: functional, cell-based, Homo sapiens; details: Homo sapiens, LAMA-84;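 further: growth inhibition of LAMA-84 cells, read out with a cell viability assay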
Description: SANGER: Inhibition of human LAMA-84 cell growth in a cell viability assay.

LAN-6 = format: functional, cell-based, Homo sapiens; details: Homo sapiens, LAN-6;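 further: growth inhibition of LAN-6 cells, determined with a cell viability assay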
Description: SANGER: Inhibition of human LAN-6 cell growth in a cell viability assay.

LB1047-RCC = format: functional, cell-based, Homo sapiens; details: Homo sapiens, LB1047-RCC;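 further: inhibition of cell growth, determined with a cell viability assay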
Description: SANGER: Inhibition of human LB1047-RCC cell growth in a cell viability assay.

LB771-HNC = format: functional, cell-based; details: Homo sapiens;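 further: growth inhibition of LB771-HNC human cells, read out with a cell viability assay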
Description: SANGER: Inhibition of human LB771-HNC cell growth in a cell viability assay.

LC-2-ad = format: functional, cell-based, Homo sapiens; details: Homo sapiens, LC-2-ad;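 further: growth inhibition of human LC-2-ad cells, read out with a cell viability assay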
Description: SANGER: Inhibition of human LC-2-ad cell growth in a cell viability assay.

LNCaP-Clone-FGC = format: functional, cell-based, Homo sapiens; details: Homo sapiens, LNCaP-Clone-FGC
Description: SANGER: Inhibition of human LNCaP-Clone-FGC cell growth in a cell viability assay.

LS-411N = format: functional, cell-based, Homo sapiens; details: Homo sapiens, LS-411N
LU-134-A = format: functional, cell-based, Homo sapiens; details: Homo sapiens, LU-134-A
Description: SANGER: Inhibition of human LU-134-A cell growth in a cell viability assay.

MC116 = format: functional, cell-based, Homo sapiens; details: Homo sapiens, MC116;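 further: growth inhibition of MC116 cells, read out with a cell viability assay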
Description: SANGER: Inhibition of human MC116 cell growth in a cell viability assay.

NB10 = format: functional, cell-based, Homo sapiens; details: Homo sapiens, NB10;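 further: growth inhibition of NB10 cells, read out by a cell viability assay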
Description: SANGER: Inhibition of human NB10 cell growth in a cell viability assay.

NCI-H1155 = format: functional, cell-based, Homo sapiens; details: Homo sapiens, NCI-H1155;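 further: cell growth inhibition measured by a viability assay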
Description: SANGER: Inhibition of human NCI-H1155 cell growth in a cell viability assay.

NCI-H226 = format: functional, cell-based, Homo sapiens; details: Homo sapiens, NCI-H226;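 further: cell viability read-out used to gauge growth inhibition of the cells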
Description: SANGER: Inhibition of human NCI-H226 cell growth in a cell viability assay.

NKM-1 = format: functional, cell-based, Homo sapiens; details: Homo sapiens, NKM-1;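 further: growth inhibition of NKM-1 cells, read out with a cell viability assay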
Description: SANGER: Inhibition of human NKM-1 cell growth in a cell viability assay.

P30-OHK = format: functional, cell-based, Homo sapiens; details: Homo sapiens, P30-OHK;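 further: growth inhibition of the P30-OHK cell line, read out with a cell viability assay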
Description: SANGER: Inhibition of human P30-OHK cell growth in a cell viability assay.

RXF 393 = format: functional, cell-based, Homo sapiens; details: Homo sapiens, RXF 393;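 further: growth inhibition of human RXF 393 cells, read out with a cell viability assay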
Description: SANGER: Inhibition of human RXF393 cell growth in a cell viability assay.

SCH = format: functional, cell-based, Homo sapiens; details: Homo sapiens, SCH;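 further: growth inhibition of human SCH cells, read out in a cell viability assay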
Description: SANGER: Inhibition of human SCH cell growth in a cell viability assay.

SK-PN-DW = format: functional, cell-based, Homo sapiens; details: Homo sapiens, SK-PN-DW;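 further: growth inhibition measured with a viability assay on these cells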
Description: SANGER: Inhibition of human SK-PN-DW cell growth in a cell viability assay.

SK-UT-1 = format: functional, cell-based, Homo sapiens; details: Homo sapiens, SK-UT-1;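 further: growth inhibition of SK-UT-1 cells, measured by a cell viability assay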
Description: SANGER: Inhibition of human SK-UT-1 cell growth in a cell viability assay.

SW756 = format: functional, cell-based; details: Homo sapiens;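 further: growth inhibition of human SW756 cells, read out with a cell viability assay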
Description: SANGER: Inhibition of human SW756 cell growth in a cell viability assay.

SW 954 = format: functional, cell-based, Homo sapiens; details: Homo sapiens, SW 954;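 further: growth inhibition of SW954 human cancer cells, read out as cell viability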
Description: SANGER: Inhibition of human SW954 cell growth in a cell viability assay.

TE-1 = format: functional, cell-based, Homo sapiens; details: Homo sapiens, TE-1
Description: SANGER: Inhibition of human TE-1 cell growth in a cell viability assay.

A253 cell line = format: functional, cell-based, Homo sapiens; details: Homo sapiens, A253;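 further: growth inhibition of A253 cells, read out with a cell viability assay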
Description: SANGER: Inhibition of human A253 cell growth in a cell viability assay.

A4-Fuk = format: functional, cell-based, Homo sapiens; details: Homo sapiens, A4-Fuk;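 further: growth inhibition of A4-Fuk cells, read out by a cell viability assay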
Description: SANGER: Inhibition of human A4-Fuk cell growth in a cell viability assay.

A498 = format: functional, cell-based, Homo sapiens; details: Homo sapiens, A498;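 further: growth inhibition of human A498 cells, read out with a cell viability assay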
Description: SANGER: Inhibition of human A498 cell growth in a cell viability assay.

ACN = format: functional, cell-based, Homo sapiens; details: Homo sapiens, ACN;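 further: growth inhibition of the human ACN cell line, read out via cell viability testing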
Description: SANGER: Inhibition of human ACN cell growth in a cell viability assay.

C-33-A = format: functional, cell-based; details: Homo sapiens;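 further: cell viability assay measuring growth inhibition of C-33-A cells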
Description: SANGER: Inhibition of human C-33-A cell growth in a cell viability assay.

C32 = format: functional, cell-based; details: Homo sapiens;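 further: cell viability assay, with IC50 reflecting inhibition of C32 cell growth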
Description: SANGER: Inhibition of human C32 cell growth in a cell viability assay.

TE-11 = format: functional, cell-based; details: Homo sapiens;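 further: growth inhibition of human TE-11 cells, read out by a cell viability assay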
Description: SANGER: Inhibition of human TE-11 cell growth in a cell viability assay.

TE-12 = format: functional, cell-based, Homo sapiens; details: Homo sapiens, TE-12;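 further: growth inhibition of TE-12 cells, read out by a cell viability assay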
Description: SANGER: Inhibition of human TE-12 cell growth in a cell viability assay.

TGBC24TKB = format: functional, cell-based; details: Homo sapiens;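 further: growth inhibition of human TGBC24TKB cells, read out with a cell viability assay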
Description: SANGER: Inhibition of human TGBC24TKB cell growth in a cell viability assay.

UACC-257 = format: functional, cell-based, Homo sapiens; details: Homo sapiens, UACC-257
Description: SANGER: Inhibition of human UACC-257 cell growth in a cell viability assay.

CAS-1 = format: functional, cell-based, Homo sapiens; details: Homo sapiens, CAS-1;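 further: growth inhibition of CAS-1 cells, measured with a cell viability assay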
Description: SANGER: Inhibition of human CAS-1 cell growth in a cell viability assay.

Structure (SMILES): OC[C@H](Cc1ccccc1)Nc1nc(Oc2ccc3c(c2)CCC3)nc2c1ncn2Cc1ccc(-c2ccccc2)cc1
- IC50 (CTV-1): > 10.2 µM
- IC50 (DBTRG-05MG): > 10.2 µM
- IC50 (DOHH-2): > 10.2 µM
- IC50 (DU-4475): 1.63 µM
- IC50 (EKVX): > 10.2 µM
- IC50 (ES3): 6.65 µM
- IC50 (ES4): 8.51 µM
- IC50 (EW-16): 8.29 µM
- IC50 (GI-1): 7.9 µM
- IC50 (HCC2157): > 10.2 µM
- IC50 (HDLM-2): > 10.2 µM
- IC50 (HL-60): > 10.2 µM
- IC50 (HT): > 10.2 µM
- IC50 (J-RT3-T3-5): > 10.2 µM
- IC50 (JVM-2): > 10.2 µM
- IC50 (KARPAS-45): > 10.2 µM
- IC50 (KU812 cell line): 0.637 µM
- IC50 (KURAMOCHI): 3.82 µM
- IC50 (KY821): > 10.2 µM
- IC50 (LAMA-84): > 10.2 µM
- IC50 (LAN-6): > 10.2 µM
- IC50 (LB1047-RCC): > 10.2 µM
- IC50 (LB771-HNC): 3.25 µM
- IC50 (LC-2-ad): 8.53 µM
- IC50 (LNCaP-Clone-FGC): > 10.2 µM
- IC50 (LS-411N): 8.51 µM
- IC50 (LU-134-A): > 10.2 µM
- IC50 (MC116): > 10.2 µM
- IC50 (NB10): > 10.2 µM
- IC50 (NCI-H1155): > 10.2 µM
- IC50 (NCI-H226): > 10.2 µM
- IC50 (NKM-1): > 10.2 µM
- IC50 (P30-OHK): 3.56 µM
- IC50 (RXF 393): > 10.2 µM
- IC50 (SCH): > 10.2 µM
- IC50 (SK-PN-DW): 5.48 µM
- IC50 (SK-UT-1): > 10.2 µM
- IC50 (SW756): > 10.2 µM
- IC50 (SW 954): > 10.2 µM
- IC50 (TE-1): > 10.2 µM
- IC50 (A253 cell line): > 10.2 µM
- IC50 (A4-Fuk): > 10.2 µM
- IC50 (A498): > 10.2 µM
- IC50 (ACN): 6.01 µM
- IC50 (C-33-A): > 10.2 µM
- IC50 (C32): > 10.2 µM
- IC50 (TE-11): > 10.2 µM
- IC50 (TE-12): > 10.2 µM
- IC50 (TGBC24TKB): > 10.2 µM
- IC50 (UACC-257): > 10.2 µM
- IC50 (CAS-1): > 10.2 µM

Structure (SMILES): O=S(=O)(O)c1ccc2cc(/N=N/c3cc(S(=O)(=O)O)c4cccnc4c3O)ccc2c1
- IC50 (CTV-1): > 16 µM
- IC50 (DBTRG-05MG): > 16 µM
- IC50 (DOHH-2): > 16 µM
- IC50 (DU-4475): > 16 µM
- IC50 (EKVX): > 16 µM
- IC50 (ES3): > 16 µM
- IC50 (ES4): > 16 µM
- IC50 (EW-16): > 16 µM
- IC50 (GI-1): > 16 µM
- IC50 (HCC2157): > 16 µM
- IC50 (HDLM-2): > 16 µM
- IC50 (HL-60): > 16 µM
- IC50 (HT): > 16 µM
- IC50 (J-RT3-T3-5): > 16 µM
- IC50 (JVM-2): > 16 µM
- IC50 (KARPAS-45): > 16 µM
- IC50 (KU812 cell line): > 16 µM
- IC50 (KURAMOCHI): > 16 µM
- IC50 (KY821): > 16 µM
- IC50 (LAMA-84): > 16 µM
- IC50 (LAN-6): > 16 µM
- IC50 (LB1047-RCC): > 16 µM
- IC50 (LB771-HNC): > 16 µM
- IC50 (LC-2-ad): > 16 µM
- IC50 (LNCaP-Clone-FGC): > 16 µM
- IC50 (LS-411N): > 16 µM
- IC50 (LU-134-A): > 16 µM
- IC50 (MC116): > 16 µM
- IC50 (NB10): > 16 µM
- IC50 (NCI-H1155): > 16 µM
- IC50 (NCI-H226): > 16 µM
- IC50 (NKM-1): > 16 µM
- IC50 (P30-OHK): > 16 µM
- IC50 (RXF 393): > 16 µM
- IC50 (SCH): > 16 µM
- IC50 (SK-PN-DW): > 16 µM
- IC50 (SK-UT-1): > 16 µM
- IC50 (SW756): > 16 µM
- IC50 (SW 954): > 16 µM
- IC50 (TE-1): > 16 µM
- IC50 (A253 cell line): > 16 µM
- IC50 (A4-Fuk): > 16 µM
- IC50 (A498): > 16 µM
- IC50 (ACN): > 16 µM
- IC50 (C-33-A): > 16 µM
- IC50 (C32): > 16 µM
- IC50 (TE-11): > 16 µM
- IC50 (TE-12): > 16 µM
- IC50 (TGBC24TKB): > 16 µM
- IC50 (UACC-257): > 16 µM
- IC50 (CAS-1): > 16 µM

— ChEMBL document CHEMBL1201861, “Genomics of Drug Sensitity in Cancer screening data, Wellcome Trust Sanger Institute”
